# Assay results reported in patent US20040072825A1, “2-(2-(4-((2r)-2-methyl-3-(10h-phenothiazin-10-yl)propyl)-1-piperazinyl)-ethoxy) ethanol, process for the preparation thereof, pharmaceutical compositions containing said compound and therapeutic uses thereof” (priority 2000, published 2004).
# Marks after values point to notes of the source that are not given here.
# What was measured:
# [1] = molecular target: D2 dopaminergic receptor (Rattus norvegicus, UniProt P61169); assay: Radioligand binding, D2 receptor (rat striatum membranes); conditions: for IC50: D2, competitive binding, read-out: Affinity pIC50 (-log IC50) (converted)
# Protocol: (§1) The test substances, biological materials and experimental protocols used in the study are described in Moguilevsky N. et al. (1994) Eur. J. […] List S. J. (1981) Proc. Natl. Acad. Sci.78:2620-2624; MacKenzie R. G. et al. (1994) Eur. J. Pharmacol. 266:79-85; Van Tol et al., (1992) Nature, 358:149-152. […] Filtermat A, Walac), then washed with cold buffer using a filtration unit ‘Cell Harvester’ (Brandel, Packard or Tomtec). The bound radioactivity is measured using a scintillation liquid (Formula 989 or Microscint 0, Packard) or solid (Meltilex B/HS, Wallac), and a scintillation counter (LS 6000, Beckman; Topcount, Packard; Betaplate, Wallac). […] Each experiment was performed in duplicate (n=2). In parallel, a positive control (concentration of reference substance causing 50% inhibition of radioligand specific binding) is tested to validate the assay. For competition experiments, membranes are incubated in the buffer containing the radioligand and increasing concentrations of unlabeled test substances. Each binding assay is validated with a reference compound tested in parallel. […] where BO and BI represent the total binding in the absence and presence of the unlabelled drug (in dpm/assay) and NSB is the amount of non specific binding (in dpm/assay). Analysis of raw data and pIC50 calculation is performed by computerized non-linear curve fitting methods using a set of equations describing competitive interactions between labelled and unlabeled ligands which obey the law of mass action. IC50 represents the concentration of the test substance inhibiting 50% of the specific binding of the radioligand. It is determined in competitive binding experiments by measuring the binding of a single concentration of a radioactive ligand at equilibrium with various concentrations of the unlabeled test substance. pIC50=−log IC50
# [2] = molecular target: human H1 histaminic receptor (Homo sapiens, UniProt P35367); assay: Radioligand binding, human H1 receptor (CHO cell culture); conditions: for IC50: H1, competitive binding, read-out: Affinity pIC50 (-log IC50) (converted)
# Protocol: as §1
# [3] = molecular target: T1, 5-HT2 serotonergic receptor (Rattus norvegicus, UniProt P14842); assay: Radioligand binding, 5-HT2 receptor (rat cerebral cortex); conditions: for IC50: 5-HT2, competitive binding, read-out: Affinity pIC50 (-log IC50) (converted)
# T1 construct: the rat cerebral cortex (5-HT2 receptor); from tissue; host or cells: rat cerebral cortex
# Protocol: as §1
# [4] = molecular target: T2, D4.4 dopaminergic receptor (Homo sapiens, UniProt P21917); assay: Radioligand binding, D4.4 receptor (CHO cell culture); conditions: for IC50: D4.4, competitive binding, read-out: Affinity pIC50 (-log IC50) (converted)
# T2 construct: expressed in transfected cells; host or cells: CHO
# T2 sequence (P21917 1-419): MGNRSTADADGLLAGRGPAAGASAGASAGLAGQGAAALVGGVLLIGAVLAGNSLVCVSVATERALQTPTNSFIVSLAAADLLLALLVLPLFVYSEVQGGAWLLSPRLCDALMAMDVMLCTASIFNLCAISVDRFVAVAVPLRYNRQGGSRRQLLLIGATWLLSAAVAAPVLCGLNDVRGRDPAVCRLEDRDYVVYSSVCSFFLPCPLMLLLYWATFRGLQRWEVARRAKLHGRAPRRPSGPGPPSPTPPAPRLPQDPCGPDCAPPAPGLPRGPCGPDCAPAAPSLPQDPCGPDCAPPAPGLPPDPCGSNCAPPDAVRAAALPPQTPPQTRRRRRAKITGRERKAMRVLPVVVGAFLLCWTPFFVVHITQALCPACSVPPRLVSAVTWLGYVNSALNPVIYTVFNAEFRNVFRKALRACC
# Protocol: as §1
# [5] = molecular target: T3, human D3 dopaminergic receptor (Homo sapiens, UniProt P35462); assay: Radioligand binding, human D3 receptor (CHO cell culture); conditions: for IC50: D3, competitive binding, read-out: Affinity pIC50 (-log IC50) (converted)
# T3 construct: expressed in transfected cells; host or cells: CHO
# Protocol: as §1
# [6] = tested on: vomiting induced by cisplatin in ferrets; assay: Cisplatin-induced emesis in ferrets, single oral administration; assay type: in vivo, ferret; conditions: for Proportion of animal vomiting: 60 min before cisplatin i.v., 5 h observation
# Protocol: Cisplatin-induced emesis in ferrets is largely considered as the most suitable animal model for the study of drug activity against chemotherapy-induced vomiting in man (Georges L. King. Animal models in the study of vomiting. Can. J. Physiol. Pharmacol. 68, 260-268, 1988).
# Three compounds, dixyrazine dihydrochloride and its (R) and (S) enantiomers were tested for their activity against vomiting induced by cisplatin in ferrets following single oral administration.
# The study involved 14 groups of 8 male ferrets weighing between 0.93 kg and 1.45 kg purchased from the company MARSHALL FARMS (NEW YORK, U.S.). Groups were defined as follows: […]
# group 1: control group dosed with the vehicle of test substances (sterile water),
# group 2: method-control group dosed with a method-control substance, granisetron ([…], RBI®), at a dose of 0.3 mg/kg,
# group 3 to 6: group dosed with diyyrazine dihydrochloride at 4 increasing doses of 7.5, 15, 30 and 60 mg/kg,
# group 7 to 10: group dosed with the (R) enantiomer of dixyrazine dihydrochloride at 4 increasing doses of 7.5, 15, 30 and 60 mg/kg,
# group 11 to 14: group dosed with the (S) enantiomer of drazine dihydrochloride at 4 increasing doses of 7.5, 15, 30 and 60 mg/kg.
# On the day prior to the test, animals were fasted and allowed access only to water.
# On the morning of the day of the study, free access to food was allowed for 30 minutes. Subsequently, animals were again put on to a water-only fast for 30 minutes before administration of the three compounds, the vehicle or the method-control substance which were administrated orally in a volume of 5 ml/kg.
# Cisplatin was administrated by the intravenous route at a dose of 115 mg/m^2 and in a volume of 115 ml/m^2 (i.e. approximately at 10 mg/kg), 60 minutes after treatment. […] Emesis was characterised by abdominal contractions, which were associated with expulsion or attempted expulsion of stomach contents.
# The time to onset of emesis was noted. The number of episodes of vomiting and the number of abdominal retches associated with episodes of emesis were also noted.
# [7] = tested on: vomiting and nausea in cancerotherapy; conditions: patients in cancerotherapy, personal interview; cited from earlier work
# [8] = highest dose of 60 mg/kg p.o., dihydrochloride, 60 mg/kg
# [9] = highest dose of 60 mg/kg p.o., listed as (R) enantiomer of dixyrazine dihydrochloride, dihydrochloride, 60 mg/kg
# T1 sequence (P14842 whole entry): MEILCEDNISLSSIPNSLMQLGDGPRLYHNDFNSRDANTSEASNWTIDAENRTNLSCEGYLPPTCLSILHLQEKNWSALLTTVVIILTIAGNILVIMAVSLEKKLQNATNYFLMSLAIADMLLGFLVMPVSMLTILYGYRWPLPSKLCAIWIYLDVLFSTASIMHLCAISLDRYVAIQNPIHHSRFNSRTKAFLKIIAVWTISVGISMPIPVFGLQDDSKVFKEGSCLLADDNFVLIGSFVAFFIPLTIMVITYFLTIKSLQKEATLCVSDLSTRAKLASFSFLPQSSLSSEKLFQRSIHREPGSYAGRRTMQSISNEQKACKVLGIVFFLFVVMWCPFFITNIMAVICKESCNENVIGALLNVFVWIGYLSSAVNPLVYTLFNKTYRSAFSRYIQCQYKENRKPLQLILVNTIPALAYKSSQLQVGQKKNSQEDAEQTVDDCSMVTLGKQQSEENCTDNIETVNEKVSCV
# Chain of D2 dopaminergic receptor (P61169 1-415 isoform P61169-2): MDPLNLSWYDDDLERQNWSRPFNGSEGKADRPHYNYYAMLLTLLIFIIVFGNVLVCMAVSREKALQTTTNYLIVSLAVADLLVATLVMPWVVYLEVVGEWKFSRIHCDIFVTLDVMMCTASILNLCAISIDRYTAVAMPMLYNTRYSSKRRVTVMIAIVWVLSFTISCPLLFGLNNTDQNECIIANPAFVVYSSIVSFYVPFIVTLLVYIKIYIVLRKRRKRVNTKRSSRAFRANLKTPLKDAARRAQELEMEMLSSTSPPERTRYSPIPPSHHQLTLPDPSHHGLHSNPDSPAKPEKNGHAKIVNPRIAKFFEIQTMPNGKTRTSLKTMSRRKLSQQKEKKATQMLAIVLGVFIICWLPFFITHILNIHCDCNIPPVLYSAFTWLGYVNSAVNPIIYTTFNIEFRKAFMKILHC
# Chain of human H1 histaminic receptor (P35367 whole entry): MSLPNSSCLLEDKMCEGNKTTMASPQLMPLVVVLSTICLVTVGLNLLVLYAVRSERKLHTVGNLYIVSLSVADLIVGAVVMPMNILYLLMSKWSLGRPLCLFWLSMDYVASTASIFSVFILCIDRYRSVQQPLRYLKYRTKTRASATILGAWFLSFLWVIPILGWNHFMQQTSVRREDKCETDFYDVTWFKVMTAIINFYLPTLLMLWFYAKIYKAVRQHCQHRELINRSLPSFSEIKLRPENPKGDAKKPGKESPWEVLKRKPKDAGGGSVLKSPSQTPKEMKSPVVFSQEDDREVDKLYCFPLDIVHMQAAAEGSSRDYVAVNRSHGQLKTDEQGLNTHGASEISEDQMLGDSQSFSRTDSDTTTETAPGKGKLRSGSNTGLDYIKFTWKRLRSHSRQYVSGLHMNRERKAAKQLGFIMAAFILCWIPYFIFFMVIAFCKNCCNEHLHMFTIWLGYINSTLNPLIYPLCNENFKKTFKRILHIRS
# T3 sequence (P35462 whole entry): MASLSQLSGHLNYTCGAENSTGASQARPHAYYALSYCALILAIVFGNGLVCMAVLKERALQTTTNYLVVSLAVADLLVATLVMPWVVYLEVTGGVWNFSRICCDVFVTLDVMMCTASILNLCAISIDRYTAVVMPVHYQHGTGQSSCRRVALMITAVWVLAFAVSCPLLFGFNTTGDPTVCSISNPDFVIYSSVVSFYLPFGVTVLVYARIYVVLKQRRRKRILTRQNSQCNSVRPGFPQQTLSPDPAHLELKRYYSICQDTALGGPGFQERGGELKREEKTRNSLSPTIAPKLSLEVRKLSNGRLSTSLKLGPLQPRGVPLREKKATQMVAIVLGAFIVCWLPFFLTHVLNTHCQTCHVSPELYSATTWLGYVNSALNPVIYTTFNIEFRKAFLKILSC
compound,measurement,setting,value
"C[C@@H](CN1CCN(CCOCCO)CC1)CN1c2ccccc2Sc2ccccc21 (single isomer, unassigned) [(S) enantiomer (free base)]",percent inhibition of control specific binding,"[1]; D2, 10 μM, mean of duplicate",89%
same,percent inhibition of control specific binding,"[2]; H1, 10 μM, mean of duplicate",101%
same,percent inhibition of control specific binding,"[3]; 5-HT2, 10 μM, mean of duplicate",101%
same,percent inhibition of control specific binding,"[4]; D4.4, 0.2 μM, mean of duplicate",— (Symbol-represents an inhibition<10%)
same,percent inhibition of control specific binding,"[4]; D4.4, 10 μM, mean of duplicate",27%
same,percent inhibition of control specific binding,"[5]; D3, 0.2 μM, mean of duplicate",— (Symbol-represents an inhibition<10%)
same,percent inhibition of control specific binding,"[5]; D3, 10 μM, mean of duplicate",74%
"C[C@H](CN1CCN(CCOCCO)CC1)CN1c2ccccc2Sc2ccccc21 [(R) enantiomer (free base), 2-(2-{4-[(2R)-2-methyl-3-(10H-phenothiazin-10-yl)propyl]-1-piperazinyl}ethoxy)ethanol]",inhibition at 10 µM,"[1]; D2, 10 μM, mean of duplicate, read-out: percent inhibition of control specific binding",100%
same,inhibition at 10 µM,"[2]; H1, 10 μM, mean of duplicate, read-out: percent inhibition of control specific binding",101%
same,inhibition at 10 µM,"[3]; read-out: percent inhibition of control specific binding, 5-HT2, 10 μM, mean of duplicate",102%
same,inhibition at 0.1 µM,"[4]; D4.4, 0.1 μM, mean of duplicate, read-out: percent inhibition of control specific binding",40%
same,inhibition at 10 µM,"[4]; D4.4, 10 μM, mean of duplicate, read-out: percent inhibition of control specific binding",99%
same,inhibition at 0.1 µM,"[5]; D3, 0.1 μM, mean of duplicate, read-out: percent inhibition of control specific binding",81%
same,inhibition at 10 µM,"[5]; D3, 10 μM, mean of duplicate, read-out: percent inhibition of control specific binding",100%
"C[C@H](CN1CCN(CCOCCO)CC1)CN1c2ccccc2Sc2ccccc21.Cl.Cl [(R) enantiomer dihydrochloride, 2-(2-{4-[(2R)-2-methyl-3-(10H-phenothiazin-10-yl)propyl]-1-piperazinyl}ethoxy)ethanol dihydrochloride]",IC50,[1],2.51 nM
same,Stereoselectivity ratio,"[1]; D2, IC50 of (S) enantiomer/IC50 of (R) enantiomer",316
same,Time to onset of emesis,[6]; 7.5 mg/kg p.o.,81 min
same,Proportion of animal vomiting,[6]; 7.5 mg/kg p.o.,5/8
same,Time to onset of emesis,[6]; 15 mg/kg p.o.,80 min
same,Proportion of animal vomiting,[6]; 15 mg/kg p.o.,8/8
same,Time to onset of emesis,[6]; 30 mg/kg p.o.,81 min
same,Proportion of animal vomiting,[6]; 30 mg/kg p.o.,5/8
same,Time to onset of emesis,[6]; 60 mg/kg p.o.,134 min
same,"suppression of vomiting, number of animals",[6]; 60 mg/kg p.o.,4 animals out of 8
same,Proportion of animal vomiting,[6]; 60 mg/kg p.o.,4/8*
same,antiemetic effect (in words),[6]; [8],induced an antiemetic effect
same,effect on time to onset of emesis (in words),[6]; [8],a tendency to increase the time to onset of emesis
same,antiemetic effect (in words),[6]; [9],significantly reduce cisplatin-induced emesis
same,effect on time to onset of emesis (in words),[6]; [9],clear tendency to delay the latency to onset of the first vomiting episode
same,IC50,[2],0.2 nM
same,Stereoselectivity ratio,"[2]; H1, IC50 of (S) enantiomer/IC50 of (R) enantiomer",25
same,IC50,[3],3.98 nM
same,Stereoselectivity ratio,"[3]; 5-HT2, IC50 of (S) enantiomer/IC50 of (R) enantiomer",16
same,IC50,[4],0.158 µM
same,Stereoselectivity ratio,"[4]; D4.4, IC50 of (S) enantiomer/IC50 of (R) enantiomer",158
same,IC50,[5],50.1 nM
same,Stereoselectivity ratio,"[5]; D3, IC50 of (S) enantiomer/IC50 of (R) enantiomer",63
"C[C@@H](CN1CCN(CCOCCO)CC1)CN1c2ccccc2Sc2ccccc21.Cl.Cl [(S) enantiomer dihydrochloride, 2-(2-{4-[(2S)-2-Methyl-3-(10H-phenothiazin-10-yl)propyl]-1-piperazinyl}ethoxy)ethanol dihydrochloride]",IC50,[1],794 nM
same,Time to onset of emesis,[6]; 7.5 mg/kg p.o.,87 min
same,Proportion of animal vomiting,[6]; 7.5 mg/kg p.o.,8/8
same,Time to onset of emesis,[6]; 15 mg/kg p.o.,87 min
same,Proportion of animal vomiting,[6]; 15 mg/kg p.o.,8/8
same,Time to onset of emesis,[6]; 30 mg/kg p.o.,82 min
same,Proportion of animal vomiting,[6]; 30 mg/kg p.o.,7/8
same,Time to onset of emesis,[6]; 60 mg/kg p.o.,68* minutes
same,Proportion of animal vomiting,[6]; 60 mg/kg p.o.,7/8
same,pro-emetic properties (in words),[6]; cisplatin-treated ferrets,undesirable pro-emetic properties
same,effect on time to onset of emesis (in words),[6]; highest dose of 60 mg/kg p.o.,statistically significant decrease in the time of onset of emesis
same,antiemetic effect (in words),"[6]; whatever the dose tested (7.5 to 60 mg/kg p.o.), dihydrochloride",no antiemetic effect
same,antiemetic effect (in words),"[6]; whatever the dose tested (7.5 to 60 mg/kg p.o.), listed as (S) enantiomer of dixyrazine dihydrochloride, dihydrochloride",inactive in preventing cisplatin-induced emesis
same,IC50,[2],5.01 nM
same,IC50,[3],63.1 nM
same,IC50,[4],25.1 µM
same,IC50,[5],3160 nM
"CN1C2CCCC1CC(NC(=O)c1nn(C)c3ccccc13)C2 (stereo not shown) [Granisetron, reference compound]",Time to onset of emesis,[6]; 0.3 mg/kg p.o.,160* minutes
same,antiemetic effect (in words),[6]; 0.3 mg/kg p.o.,significant antiemetic effect
same,Proportion of animal vomiting,[6]; 0.3 mg/kg p.o.,3/8*
same,"suppression of vomiting, number of animals","[6]; 0.3 mg/kg p.o., 1 hour before cisplatin i.v.",5 animals out of 8
same,effect on time to onset of emesis (in words),"[6]; 0.3 mg/kg p.o., the 3 animals that still vomited",increase in the time to onset of emesis
Cc1nccn1CC1CCc2c(c3ccccc3n2C)C1=O (stereo not shown) [ondansetron],effect on nausea (in words),[7],no clear-cut effect against the nausea
same,effect on vomiting (in words),[7],clearly effective in preventing vomiting
